One data set in a line: Emission in blood. Also noted: species or system porcine. As to the method:
Compound 15d (Table 1) was diluted to 40 μM in 50% DMSO:50% 25 mM pH 9 phosphate buffer. […] Emission remained stable for at least 1 hour. The absorption profile matches the output of a laser pointer (635-670 nm; max output <5 mW). NIR emission (80 μM) was clearly visible with a digital camera (Kodak EasyShare Z740) in a NIR photograph taken with 8 sec. exposure collected through a Hoya R72 camera filter (% T<1% at <690 nm, % T>90% at >750 nm).
Its absorbance and fluorescence spectra faded over time, but remained visible after about an hour (although with only 10-20% of its original emission intensity). Molecular modeling has shown favorable structural interactions of compounds 5f and 24 with glutathione (see, e.g., FIG. 20—compound 24).
Spectral behavior of compound 15g (type [c] annulated seminaphthorhodamine methyl ester (free amine) with the 3-1 transposition) was investigated to determine its potential for sensing use in whole blood. Solutions of compound 15g in 10% or 90% by volume whole blood (porcine blood in Na-EDTA, Lampire Biological Laboratories) were investigated in a 3×3 mm cell. […] Throughout much of the spectrum, the dye produces a greater absorbance than the blood alone. The change in absorbance between the two spectra provides the effective absorbance of the dye. […]

Data set [1] in a line: Absorbance and emission in 0.1M NaOH. Format: physicochemical. An excerpt: The absorbance and fluorescence spectra of the fluorophore typically are pH dependent. For example, the absorbance maximum for one ester derivative (compound 15d) in 0.1M NaOH is 620 nm and the emission maximum in same solvent is 770 nm. The Stokes shift in this solvent is 150 nm (3142 cm^−1).
The nature of data set [2]: Spectral properties of rhodamine bis-boronic acids and precursors (Table 5). The data set is classed as physicochemical. An excerpt:
Excitation and emission spectra were normalized to their absorbance at the excitation wavelength, and are proportional to quantum yield.

The nature of data set [3]: UV-visible absorbance spectroscopy of fluorophores (15 μM, 90% aqueous, 10% DMSO). The data set is classed as physicochemical. To be noted: for red-shift of absorbance maximum: 15a compared to 20a, anion 15h compared to anion 20c. As to the method:
Compounds 20a and 15a were characterized by UV-visible spectroscopy (FIG. 25). Absorbance was measured using 15 μM solutions of each compound in a solution that was 90% aqueous, 10% DMSO. The peaks at 545 nm (light dashed line) and 595 nm (light solid line) represent the respective anions, compounds 20c and 15h, in NaOH (pH 12). The peaks at 515 nm (heavy dashed line) and 525 nm (heavy solid line) represent the predominantly neutral forms of compounds 20a and 15a at pH 6, respectively.
Although the red shift of compound 15a in methanol was modest, its corresponding anion (compound 15h) in DMSO:aqueous base 1:9 was shifted more substantially by 50 nm to […] as compared to anion 20c under the same conditions. Its fluorescence emission was shifted by an even larger […], emitting at 760 nm. The comparatively large shift of the anion 15h supports a polar effect as playing a key role in modulating the HOMO-LUMO gap in the compound. […]
Known seminaphthorhodafluors display long wavelength absorption at high pH; however, the free amino compound in this series respond to low pH with increased long wavelength absorption.

The nature of data set [4]: Fluorescence emission spectra and Stokes shift of fluorophores (15 μM, 90% aqueous, 10% DMSO). Format: physicochemical. As to the method: Compounds 21 and 7 also were characterized by their fluorescence emission spectra. Fluorescence was measured using 15 μM solutions of each compound in a solution that was 90% aqueous, 10% DMSO. For compound 21, the longest wavelength emission observed from the dianion occurred near 680 nm at pH 9. For compound 7 (transposed), the longest wavelength emission observed from the monoanion occurred near 800 nm at pH 9.
The Stokes shift of each compound was measured and determined to be about 80 nm for the compound 21 dianion, and about 150 nm for the compound 7 (transposed) monoanion.
Compounds 22 and 8 also were characterized by their fluorescence emission spectra. Fluorescence was measured using 15 μM solutions of each compound in a solution that was 90% aqueous, 10% DMSO. For compound 22, the longest wavelength emission observed from the anion occurred near 690 nm at pH 9. For compound 8 (transposed), emission was not observed. Given the greater than 800 nm absorbance peak and the typically large Stokes shifts observed in this class of compounds, it is likely that the emission was beyond the working range of the instrument (>850 nm).
The Stokes shift of each compound was measured and determined to be about 80 nm for the compound 22 anion, and unmeasurable for the compound 8 (transposed) neutral form.
Compounds 20a and 15a also were characterized by their fluorescence emission spectra. Fluorescence was measured using 15 μM solutions of each compound in a solution that was 90% aqueous, 10% DMSO. For compound 20a, the longest wavelength emission observed from its corresponding anion, compound 20c, occurred near 640 nm in NaOH (pH 12). For compound 15a (with 3-1 transposition), the longest wavelength emission observed from the corresponding anion, compound 15h, occurred near 760 nm in NaOH.
The Stokes shift of each compound was measured and determined to be about 95 nm for the compound 20c anion, and about 165 nm for the compound 15h (transposed) anion. Thus, the 3-1 transposition enhanced the Stokes shift by about 70 nm.
Compound 15b also was characterized by its fluorescence emission spectrum and compared to C.SNARF-5. Fluorescence was measured using a 15 μM solution of compound 15b in a solution that was 90% aqueous, 10% DMSO. For C.SNARF-5, the longest wavelength emission observed from the anion occurred near 632 nm (Whitaker et al., Anal. Biochem. 1991, 194, 330-344). For compound 15b (transposed), the longest wavelength emission observed from the phenoxide occurred near 770 nm.
The Stokes shift of each compound was measured and determined to be about 82 nm for the C.SNARF-5 anion, and about 155 nm for the compound 15b (transposed) phenoxide. Thus, the 3-1 transposition enhanced the Stokes shift by about 73 nm.
Compound 15d also was characterized by its fluorescence emission spectrum and compared to SNARF-1. Fluorescence was measured using a 15 μM solution of compound 15d in a solution that was 90% aqueous, 10% DMSO. For SNARF-1, the longest wavelength emission observed from the anion occurred near 631 nm (Whitaker et al., Anal. Biochem. 1991, 194, 330-344). For compound 15d (transposed), the longest wavelength emission observed from the phenoxide occurred near 780 nm (NaOH, pH 12).
The Stokes shift of each compound was measured and determined to be about 58 nm for the SNARF-1 anion, and about 150 nm for the compound 15d (transposed) phenoxide. Thus, the 3-1 transposition enhanced the Stokes shift by about 92 nm.
Compounds 20b and 15g also were characterized by their fluorescence emission spectra. Fluorescence was measured using 15 μM solutions of each compound in a solution that was 90% aqueous, 10% DMSO. For compound 20b, the longest wavelength emission observed from the cation occurred near 640 nm at pH 7.4. For compound 15g (transposed), the longest wavelength emission observed from the cation occurred near 770 nm at pH 7.4. […]

Data set [5] can be described thus: Absorbance and fluorescence measured in methanol. The data set is classed as physicochemical. Particulars: versus analogue with known regiochemistry (8 vs 22, 15a vs 20a). The protocol:
Absorbance and fluorescence of compounds 22 and 8 also were measured in methanol. […] Thus, placement of the hydroxyl group proximal to the xanthene internal oxygen in compound 8 produced a bathochromic shift of 103 nm in the absorption spectrum. The transposition also imparted a corresponding shift in the excitation spectrum, and a large bathochromic shift of 128 nm in the fluorescence emission. Importantly, compound 8 absorbs and emits in the near-infrared with absorption and emission maxima of 701 nm and 816 nm, respectively.
Absorbance and fluorescence of compounds 20a and 15a also were measured in methanol. […] Thus, placement of the hydroxyl group proximal to the xanthene internal oxygen in compound 15a produced a bathochromic shift of 15 nm in the absorbance spectrum. The transposition also imparted a corresponding shift in the excitation spectrum, and a large bathochromic shift of 32 nm in the fluorescence emission.

Where [6] appears, read: DMSO:buffer 1:1, pH 7.4 phosphate buffer 12.5 mM.
Setting [7] is: DMSO:buffer 1:9, pH 7.4 phosphate buffer 12.5 mM.

With `COC(=O)c1ccccc1-c1c2ccc(=[N+](C)C)cc-2oc2c1ccc1cccc(O)c12` [Compound 15d], in “Emission in blood” (5% whole blood), the “time emission remained stable” value is “at least 1 hour”. Also, in data set [1], the absorbance maximum is 620 nm and the emission maximum was 770 nm.
Turning to `N=c1ccc2c(ccc3c(-c4ccccc4C(=O)O)c4ccc(N)cc4oc32)c1` [Compound 50], in data set [2] (DMSO buffer 1:9), the quantum yield stood at 19%, the “red shift of maximum absorption versus rhodamine 110” value was determined as 40 nm and the “red shift of maximum emission versus rhodamine 110” value is roughly 100 nm. In addition, in data set [2] (setting [6]), the Abs amounted to 542 nm, the Brightness came to 6298, the Em was found to be 630 nm and the Ex worked out at 542 nm. In data set [2] (setting [6]), this compound registered a Q.Y. of 0.30 and a ε of 21064 M⁻¹ cm⁻¹. In addition, in data set [2] (setting [7]), the Abs is recorded as 535 nm, the Brightness was found to be 8083, the Em stood at 628 nm and the Ex is 534 nm. In data set [2] (setting [7]), the Q.Y. is recorded as 0.19 and the ε was determined as 42701 M⁻¹ cm⁻¹.
As for `COC(=O)c1ccccc1-c1c2ccc(=O)cc-2oc2c1ccc1cccc(N)c12` [Compound 15e], the “pH titration of absorption” value in data set [3] (low pH) is “increased long wavelength absorption and decreased short wavelength absorption at low pH”.
Regarding `O=C1OC2(c3ccccc31)c1ccc3cccc(O)c3c1Oc1c2ccc2cccc(O)c12` [Compound 7], the longest wavelength emission entry in data set [4] (NaOH (pH 12), anion/dianion/phenoxide, 15 μM, 90% aqueous, 10% DMSO) was “either too weak to be detected or, more likely, beyond the working range of the instrument”. Besides, in data set [3] (1:9 DMSO:buffer below physiological pH of 7.4), the form in solution entry is given as “colorless lactone”.
On to `COC(=O)c1ccccc1-c1c2ccc(=O)cc-2oc2c1ccc1cccc(O)c12` [Compound 15h], for which, in data set [4] (anion 15h compared to anion 20c), the “bathochromic shift in emission wavelength” value is on record as 130 nm. Besides, the Stokes shift result is on record as “about 165 nm” in data set [4] (anion/phenoxide in NaOH (pH 12)) and 160 nm in data set [4] (anionic form, NIR emission at 760 nm). The fluorescence emission in data set [4] (anion, DMSO:aqueous base 1:9) worked out at 760 nm. Further, the “red-shift of absorbance maximum” value in data set [3] stood at 50 nm. The compound further gave an absorbance maximum in data set [3] (anion, DMSO:aqueous base 1:9) of 599 nm.
For `COC(=O)c1ccccc1-c1c2ccc(=O)cc-2oc2c1ccc1cccc(O)c12` [Compound 15a], in data set [3], the “red-shift of absorbance maximum” value is recorded as 15 nm. Further, in data set [5], the “bathochromic shift in the absorption spectrum” value was 15 nm and the “bathochromic shift in the fluorescence emission” value is reported as 32 nm.
For `COC(=O)c1ccccc1-c1c2ccc3cccc(O)c3c2oc2c1ccc1cccc(=O)c12` [Compound 8], the fluorescence emission entry in data set [4] (15 μM, 90% aqueous, 10% DMSO, instrument range to 850 nm) is on record as “not observed”. Also, in data set [5], the “bathochromic shift in the absorption spectrum” value amounted to 103 nm and the “bathochromic shift in the fluorescence emission” value is 128 nm.
In the case of `Cc1ccc(C)c(-c2c3ccc4cccc(O)c4c3oc3c2ccc2cccc(=O)c23)c1` [Compound 4a], the “absorption in the blood solution” value in “Emission in blood” (blood solution) was “clearly visible and remained stable over extended periods of time”.

The values above are taken from patent US10197574B2, “Analyte detection using near-infrared fluorophores” (Portland State University, priority 2011, dated 2019).
